Test results published in patent publication US20260008995A1, “ISOLATED […], COMPOSITIONS COMPRISING THE SAME, AND USES THEREOF” (MOON (GUANGZHOU) BIOTECH CO., LTD., priority 2023, published 2026).

Key:
Strain MNH04863 = experiment: antibiotic susceptibility testing, disk diffusion test; assay type: cell-based, Christensenella sp.; conditions: for MNH04863 Inhibition Zone Diameter: disk diffusion, strain MNH04863; for susceptibility of strain MNH04863 to the antibiotic: result in words
Description: (§1) Antibiotic susceptibility testing was performed separately for each strain using the disk diffusion test.

Strain MNH05119 = experiment: as above; assay type: cell-based, Christensenella sp.; conditions: for MNH05119 Inhibition Zone Diameter: disk diffusion, strain MNH05119; for susceptibility of strain MNH05119 to the antibiotic: result in words
Description: as §1

Strain MNH06163 = experiment: as above; assay type: cell-based, Christensenella sp.; conditions: for MNH06163 Inhibition Zone Diameter: disk diffusion, strain MNH06163; for susceptibility of strain MNH06163 to the antibiotic: result in words
Description: as §1

[1] = system: type II diabetic mice (db/db); experiment: combination of MNH05119 and metformin in type II diabetic model mice (Example 7); assay type: in vivo, BKS-Leprem2Cd479/Gpt (db/db) mice; conditions: 28 days, MNH05119 2×10^10 CFU/mouse twice daily, metformin 250 mg/kg once daily, oral gavage

`CC1(C)S[C@@H]2[C@H](NC(=O)[C@H](N)c3ccccc3)C(=O)N2[C@H]1C(=O)O` [Ampicillin (AMP), Ampicillin] was tested, and the “MNH04863 Inhibition Zone Diameter” value (Strain MNH04863) was 0 mm, the “susceptibility of strain MNH04863 to the antibiotic” value (from here on “susceptibility of strain MNH04863”) (Strain MNH04863) was “resistance” and the “MNH05119 Inhibition Zone Diameter” value (Strain MNH05119) was 0 mm. The “susceptibility of strain MNH05119 to the antibiotic” value (“susceptibility of strain MNH05119” below) (Strain MNH05119) was “resistance”, the “MNH06163 Inhibition Zone Diameter” value (Strain MNH06163) was 0 mm and the “susceptibility of strain MNH06163 to the antibiotic” value (shortened to “susceptibility of strain MNH06163”) (Strain MNH06163) was “resistance”.

For `CO/N=C(\C(=O)N[C@@H]1C(=O)N2C(C(=O)O)=C(CSc3nc(=O)c(=O)[nH]n3C)CS[C@H]12)c1csc(N)n1` [Ceftriaxone (CTR), Ceftriaxone], the “MNH04863 Inhibition Zone Diameter” value (Strain MNH04863) was 37.32 mm, the “susceptibility of strain MNH04863” value (Strain MNH04863) was “sensitive” and the “MNH05119 Inhibition Zone Diameter” value (Strain MNH05119) was 0 mm. For the same compound, the “susceptibility of strain MNH05119” value (Strain MNH05119) was “resistance”, the “MNH06163 Inhibition Zone Diameter” value (Strain MNH06163) was 0 mm and the “susceptibility of strain MNH06163” value (Strain MNH06163) was “resistance”.

`O=C(N[C@H](CO)[C@H](O)c1ccc([N+](=O)[O-])cc1)C(Cl)Cl` [Chloramphenicol (CLM), Chloramphenicol] was tested, and the “MNH04863 Inhibition Zone Diameter” value (Strain MNH04863) was 38.88 mm, the “susceptibility of strain MNH04863” value (Strain MNH04863) was “sensitive” and the “MNH05119 Inhibition Zone Diameter” value (Strain MNH05119) was 32.49 mm. For the same compound, the “susceptibility of strain MNH05119” value (Strain MNH05119) was “sensitive”, the “MNH06163 Inhibition Zone Diameter” value (Strain MNH06163) was 21.59 mm and the “susceptibility of strain MNH06163” value (Strain MNH06163) was “sensitive”.

In the case of `O=C(O)c1cn(C2CC2)c2cc(N3CCNCC3)c(F)cc2c1=O` [Ciprofloxacin (CFX), Ciprofloxacin], the “MNH04863 Inhibition Zone Diameter” value (Strain MNH04863) is reported as 0 mm, the “susceptibility of strain MNH04863” value (Strain MNH04863) is reported as “resistance” and the “MNH05119 Inhibition Zone Diameter” value (Strain MNH05119) is reported as 0 mm. For the same compound, the “susceptibility of strain MNH05119” value (Strain MNH05119) was “resistance”, the “MNH06163 Inhibition Zone Diameter” value (Strain MNH06163) was 0 mm and the “susceptibility of strain MNH06163” value (Strain MNH06163) was “resistance”.

With `CC[C@H]1OC(=O)[C@H](C)[C@@H](O[C@H]2C[C@@](C)(OC)[C@@H](O)[C@H](C)O2)[C@H](C)[C@@H](O[C@@H]2O[C@H](C)C[C@H](N(C)C)[C@H]2O)[C@](C)(O)C[C@@H](C)C(=O)[C@H](C)[C@@H](O)[C@]1(C)O` [Erythromycin (ERM), Erythromycin] the “MNH04863 Inhibition Zone Diameter” value (Strain MNH04863) was 16.82 mm, the “susceptibility of strain MNH04863” value (Strain MNH04863) was “sensitive” and the “MNH05119 Inhibition Zone Diameter” value (Strain MNH05119) was 31.65 mm. The “susceptibility of strain MNH05119” value (Strain MNH05119) was “sensitive”, the “MNH06163 Inhibition Zone Diameter” value (Strain MNH06163) was 8.72 mm and the “susceptibility of strain MNH06163” value (Strain MNH06163) was “sensitive”.

In the case of `CCC[C@@H]1C[C@@H](C(=O)N[C@@H]([C@H]2O[C@H](SC)[C@H](O)[C@@H](O)[C@H]2O)[C@@H](C)O)N(C)C1` [Lincomycin (LIN), Lincomycin], the “MNH04863 Inhibition Zone Diameter” value (Strain MNH04863) is reported as 29.86 mm, the “susceptibility of strain MNH04863” value (Strain MNH04863) is reported as “sensitive” and the “MNH05119 Inhibition Zone Diameter” value (Strain MNH05119) is reported as 0 mm. For the same compound, the “susceptibility of strain MNH05119” value (Strain MNH05119) was “resistance”, the “MNH06163 Inhibition Zone Diameter” value (Strain MNH06163) was 0 mm and the “susceptibility of strain MNH06163” value (Strain MNH06163) was “resistance”.

For `CN(C)[C@@H]1C(O)=C(C(N)=O)C(=O)[C@@]2(O)C(O)=C3C(=O)c4c(O)cccc4[C@@](C)(O)[C@H]3C[C@@H]12` [Tetracycline (TET), Tetracycline], the “MNH04863 Inhibition Zone Diameter” value (Strain MNH04863) was 46.11 mm, the “MNH05119 Inhibition Zone Diameter” value (Strain MNH05119) was 24.12 mm and the “MNH06163 Inhibition Zone Diameter” value (Strain MNH06163) was 18.14 mm.

With `CN(C)C(=N)N=C(N)N` [metformin] the “reduction of fasting blood glucose value compared to negative control group” value [1] was 50%.

“Compound sulfamethoxazole [sulfamethoxazole (T/S)]” was tested, and the “MNH04863 Inhibition Zone Diameter” value (Strain MNH04863) was 0 mm, the “susceptibility of strain MNH04863” value (Strain MNH04863) was “resistance” and the “MNH05119 Inhibition Zone Diameter” value (Strain MNH05119) was 0 mm. The “susceptibility of strain MNH05119” value (Strain MNH05119) was “resistance”, the “MNH06163 Inhibition Zone Diameter” value (Strain MNH06163) was 0 mm and the “susceptibility of strain MNH06163” value (Strain MNH06163) was “resistance”.

In the case of Gentamycin [Gentamycin (GEN)], the “MNH04863 Inhibition Zone Diameter” value (Strain MNH04863) is reported as 0 mm, the “susceptibility of strain MNH04863” value (Strain MNH04863) is reported as “resistance” and the “MNH05119 Inhibition Zone Diameter” value (Strain MNH05119) is reported as 0 mm. For the same compound, the “susceptibility of strain MNH05119” value (Strain MNH05119) was “resistance”, the “MNH06163 Inhibition Zone Diameter” value (Strain MNH06163) was 0 mm and the “susceptibility of strain MNH06163” value (Strain MNH06163) was “resistance”.

Penicillin [Penicillin (PEN)] was tested, and the “MNH04863 Inhibition Zone Diameter” value (Strain MNH04863) was 43.06 mm, the “susceptibility of strain MNH04863” value (Strain MNH04863) was “sensitive” and the “MNH05119 Inhibition Zone Diameter” value (Strain MNH05119) was 0 mm. For the same compound, the “susceptibility of strain MNH05119” value (Strain MNH05119) was “resistance”, the “MNH06163 Inhibition Zone Diameter” value (Strain MNH06163) was 0 mm and the “susceptibility of strain MNH06163” value (Strain MNH06163) was “resistance”.
